What was measured:
[1] = Displacement of ethidium from poly[d(A-T)]-poly[d(A-T)] DNA by fluorimetric method
Mus musculus = experiment: Toxicity in ip dosed C3H X DBA2 F1 hybrid mouse […] with mouse L1210 cells on day 0 and dosed once daily on days 1 to 5 measured after 50 days; format: organism-based; conditions: in vivo, 1200 h
Bos taurus = organism: Bos taurus; experiment: Displacement of ethidium from calf thymus DNA by fluorimetric method
[2] = Displacement of ethidium from poly[d(G-C)]-poly[d(G-C)] DNA (unknown origin) by fluorimetric method
L1210 [3] = experiment: Antitumor activity against mouse L1210 cells […] in ip dosed C3H X DBA2 F1 hybrid mouse on day 0 and dosed once daily on days 1 to 5 assessed as increase in life span relative to control; format: functional
L1210 [4] = experiment: Antitumor activity against mouse L1210 cells […] in ip dosed C3H X DBA2 F1 hybrid mouse on day 0 and dosed at LD10 level once daily on days 1 to 5 assessed as increase in life span relative to control; format: functional
[5] = Lipophilic-hydrophilic balance, Rm of the compound by partition chromatography; format: physicochemical

SMILES	C50 [1] [µM]	LD10 (Mus musculus) [mg/kg]	C50 (Bos taurus) [µM]	C50 [2] [µM]	D40 (L1210 [3]) [mg/kg]	log(ILSmax) (L1210 [4])	Rm [5]
C[n+]1cccc(NC(=O)c2ccc(NC(=O)c3cccc(C(=O)Nc4ccc(C(=O)Nc5ccc[n+](C)c5)cc4)c3)cc2)c1.Cc1ccc(S(=O)(=O)[O-])cc1.Cc1ccc(S(=O)(=O)[O-])cc1	1.2	35	0.9	1.9	25	1.85	0.2
C(=C\c1ccc(-[n+]2ccccc2)cc1)/c1ccc(/C=C/c2ccc(-[n+]3ccccc3)cc2)cc1.Cc1ccc(S(=O)(=O)[O-])cc1.Cc1ccc(S(=O)(=O)[O-])cc1	0.2	7	0.76	2.1	1.6	1.95	0.05
C[n+]1ccc(Nc2ccc(S(=O)(=O)Nc3ccc(Nc4c5ccccc5[n+](C)c5cc(N)ccc45)cc3)cc2)cc1.[O-][Cl+3]([O-])([O-])[O-].[O-][Cl+3]([O-])([O-])[O-]	0.07	35	0.1	0.12	5	2.18	0.57
CCCC[n+]1cccc(C(=O)Nc2ccc(NC(=O)c3ccc(C(=O)Nc4ccc5c(ccc[n+]5CCCC)c4)cc3)cc2)c1.Cc1ccc(S(=O)(=O)[O-])cc1.Cc1ccc(S(=O)(=O)[O-])cc1	2.1	19	2.5	4.2	12	1.72	0.65
C[n+]1cccc(NC(=O)c2ccc(NC(=O)c3ccc(C(=O)Nc4ccc(C(=O)Nc5ccc[n+](C)c5)cc4)c(N)c3)cc2)c1.Cc1ccc(S(=O)(=O)[O-])cc1.Cc1ccc(S(=O)(=O)[O-])cc1	0.37	20	0.53	0.93	3.9	2.17	-0.63
COc1cc(C(=O)Nc2ccc[n+](C)c2)ccc1NC(=O)c1ccc(C(=O)Nc2ccc(C(=O)Nc3ccc[n+](C)c3)cc2OC)cc1.Cc1ccc(S(=O)(=O)[O-])cc1.Cc1ccc(S(=O)(=O)[O-])cc1	0.72	25	0.84	0.9	13	1.89	-0.41
C[n+]1cccc(NC(=O)c2ccc(NC(=O)c3ccc(C(=O)Nc4ccc(NC(=N)NC(=N)N)cc4)cc3)cc2)c1.I.[I-]	0.77	11	1.14	1.71	1	2.2	-0.4
C[n+]1cccc(NC(=O)c2ccc(NC(=O)/C=C/c3ccc(C(=O)Nc4ccc(C(=O)Nc5ccc[n+](C)c5)cc4)cc3)cc2)c1.Cc1ccc(S(=O)(=O)[O-])cc1.Cc1ccc(S(=O)(=O)[O-])cc1	0.22	100	0.3	0.23	21	1.99	-0.95
C[n+]1cc(-c2ccc(NC(=O)/C=C/c3ccc(C(=O)Nc4ccc(-c5c[n+](C)c(N)nc5N)cc4)cc3)cc2)c(N)nc1N.Cc1ccc(S(=O)(=O)[O-])cc1.Cc1ccc(S(=O)(=O)[O-])cc1	0.11	50	0.4	0.57	10.7	2.2	-0.62
COc1cc(N)cc2c(Nc3ccc(NC(=O)c4ccc(Nc5cc[n+](C)cc5)cc4)cc3)cc[n+](C)c12.Cc1ccc(S(=O)(=O)[O-])cc1.Cc1ccc(S(=O)(=O)[O-])cc1	0.1	56	0.31	0.61	1.1	2.33	0.07
CCC[n+]1ccc(Nc2ccc(NC(=O)c3ccc(Nc4cc[n+](CCC)c5ccc(N)cc45)cc3)cc2)cc1.[Br-].[Br-]	0.1	10	0.68	1.1	1.8	2.07	0.46
CC[n+]1cc(-c2ccc(NC(=O)c3ccc(C(=O)Nc4ccc(-c5c[n+](CC)c(N)nc5N)cc4)cc3)cc2)c(N)nc1N.Cc1ccc(S(=O)(=O)[O-])cc1.Cc1ccc(S(=O)(=O)[O-])cc1	0.45	15	0.84	2.1	3.5	2.17	-0.19
C/C(=N\NC(=N)N)c1ccc(NC(=O)c2ccc(Nc3cc[n+](C)c4cc([N+](=O)[O-])ccc34)cc2)cc1.Cl.[Cl-]	0.13	56	0.2	0.74	5.9	2.18	-0.24
C[n+]1cccc(NC(=O)c2ccc(NC(=O)c3ccc(C(=O)Nc4ccc(Nc5cc[n+](C)c6ccc(N)cc56)cc4)cc3)cc2)c1.Cc1ccc(S(=O)(=O)[O-])cc1.Cc1ccc(S(=O)(=O)[O-])cc1	0.22	140	0.31	0.34	22.1	1.95	-0.47
C[n+]1cccc(NC(=O)c2ccc(NC(=O)c3ccc(C(=O)Nc4ccc(-c5ccc(-c6ccc(-c7ccc[n+](C)c7)cc6)cc5)cc4)cc3)cc2)c1.Cc1ccc(S(=O)(=O)[O-])cc1.Cc1ccc(S(=O)(=O)[O-])cc1	0.5	14	0.63	0.84	2.5	2.25	-0.4
C[n+]1ccc(-c2ccc(NC(=O)c3ccc(Nc4cc[n+](C)c5ccccc45)cc3)cc2)cc1.Cc1ccc(S(=O)(=O)[O-])cc1.Cc1ccc(S(=O)(=O)[O-])cc1	0.3	15	0.89	3	2.2	2.08	0.33
Br.C/C(=N\NC(=N)N)c1ccc(NC(=O)c2ccc(Nc3cc[n+](C)c4ccccc34)cc2)cc1.[Br-]	0.39	33	0.78	1.04	13	1.91	-0.07
CCC[n+]1cccc(NC(=O)c2ccc(NC(=O)c3ccc(C(=O)Nc4ccc(C(=O)Nc5ccc[n+](CCC)c5)c(N)c4)c(N)c3)cc2N)c1.Cc1ccc(S(=O)(=O)[O-])cc1.Cc1ccc(S(=O)(=O)[O-])cc1	0.08	10	0.26	0.48	2.2	2.1	-0.51
C[n+]1cccc(NC(=O)c2ccc(NC(=O)c3ccc(C(=O)Nc4ccc(NC(=N)N)cc4)cc3)cc2)c1.I.[I-]	0.91	8	1.38	2.07	0.2	2.18	-0.12
C[n+]1ccc(Nc2ccc(NC(=O)c3ccc(C(=O)Nc4ccc(Nc5cc[n+](C)c(N)n5)cc4)cc3)cc2)nc1N.Cc1ccc(S(=O)(=O)[O-])cc1.Cc1ccc(S(=O)(=O)[O-])cc1	0.29	75	0.45	0.64	8.6	2.2	-0.64

From ChEMBL document CHEMBL3228010, “Potential antitumor agents. 29. Quantitative structure-activity relationships for the antileukemic bisquaternary ammonium heterocycles” (J Med Chem, 1979)
